Experiment [1] concerns sAPPα release, NT2 cells stably expressing human APP751. In words: sAPPα ELISA, NT2 cells expressing APP751. It is filed as cell-based. The settings on record: 24 h. Here is the method: (§1) (5). To confirm the effect of THPI-244 on sAPPα levels in a neuronal cell line and by a tertiary assay, we exposed human Neuron-committed Teratocarcinoma cell line (NT2) stably expressing human APP751 to different concentrations of THPI-244 for 24 h and compared with that of Bryostatin, a classical activator of PKC known to stimulate sAPPα release. […] Levels of sAPPα were measured by ELISA using commercially available kit (cat #27734, IBL-America, Minneapolis, Minn., USA). […] Similar biphasic effect of Bryostatin was confirmed for Aβ42 also, measured again in NT2 stable cells by ELISA (cat # KHB3441, Life Technologies, Grand Island, N.Y., USA). Consistent with sAPPα, THPI-244 decreased Aβ42 levels dose-dependently starting from 50 nM (28%, p<0.05) to 2000 nM (64%, p<0.001) (n=4 independent experiments) (FIG. 1.7). Thus THPI-244 increased non-amyloidogenic processing of APP in NT2 cells.
On the technique in general: An ELISA detects its analyte on a solid surface through an enzyme-linked reagent.

The test system of experiment [2] is sAPPα release, fibroblasts derived from AD patients. The experiment can be described thus: sAPPα ELISA, AD fibroblasts. The format is cell-based, human. Conditions: 24 h. The procedure:
(1). […] Therefore, we first used fibroblasts derived from AD patients (AG06263C, Coriell Cell repository, supported by NINDS/NIH) and exposed to THPI-244 for 24 h and measured sAPPα release by ELISA as done above for NT2 cells. […] We also confirmed dose-dependent effect of THPI-244 on sAPPα levels in human primary neurons transiently transfected with APP751 with Swedish mutation which is trafficked differently from WT APP and releases more sAPPα. Human neurons were grown on specially coated glass coverslips (cat # GG-18-PDL, NeuVitro, Germany). We could reproducibly achieve nearly 30% transfection efficiency using a nanoparticle based transfection reagent called Neuromag (cat # NM150299, OZ Biosciences, France).

Experiment [3] relates to Aβ42 levels, NT2 cells stably expressing APP751. In words: Aβ42 ELISA, NT2 stable cells. The format is cell-based, human. Conditions: ELISA. Here is the method:
as §1

The structures appear in SMILES notation.

Regarding `CCC/C=C/C=C/C(=O)O[C@H]1/C(=C/C(=O)OC)C[C@H]2C[C@H]([C@@H](C)O)OC(=O)C[C@H](O)C[C@@H]3C[C@H](OC(C)=O)C(C)(C)[C@](O)(C[C@@H]4C/C(=C/C(=O)OC)C[C@H](/C=C/C(C)(C)[C@]1(O)O2)O4)O3` [Bryostatin, reference compound], the “concentration from which sAPPα increase is significant” value in experiment [1] and in experiment [2] was 10 nM throughout. Also, in experiment [1], the “effect on sAPPα release” value is given as “increased sAPPα at low nM concentrations, but then decreased levels dose-dependently”. Further, the “concentration from which Aβ42 decrease is significant” value in experiment [3] is recorded as 10 nM.

The values are drawn from patent publication US20150315179A1, “COMPOUNDS AND METHODS OF TREATING NEUROLOGICAL DISORDERS” (Torrey Pines Institute For Molecular Studies, priority 2014, published 2015).
